Laboratory results published in patent US5804589A, “Use of N-cyclohexyl benzamides for treating bowel disorders” (Laboratoires Jacques Logeais, priority 1995, dated 1998).
Several values for one entry are separate records, joined by “and”; a condition that tells them apart may be missing. Equal entries are not always repeated. Entries after “also recorded” stand apart in the source; their conditions may differ.

How the values were obtained:
[1] = Visceral sensitivity: abdominal contractures produced by rectal distension after acetic acid irritation; format: in vivo; details: rat, 10 min distension, mean of five rats, placebo 23.8 ± 1.6, * p < 0.05 vs placebo
Source text: The first model consists in observing, in the rat, the abdominal contractures produced by a rectal distension applied to a mucous membrane which has been irritated beforehand. The number of contractures is proportional to the intensity of the pain experienced. A similar model has been described in Neurogastroenterol. and Mot. (1994), 6, 140, where it is shown that the products which decrease the perception of pain in man decrease the number of contractures observed in the rat.
Male Sprague-Dawley rats weighing 180 g are deprived of food for 12 hours. Under slight fluothane anaesthesia, an intrarectal probe is introduced (5 cm from the anus) and 1.5 ml of 1% dilute acetic acid are injected. The acid immediately flows out via the anus. This rapid contact of the acid makes it possible to irritate the mucous membrane (model for rectal colitis). 1 h 30 after irritation, a small latex balloon (diameter when empty 2 mm, length 1 cm), mounted on a polyurethane catheter (int. diameter 1 mm), is introduced into the rectum (5 cm from the anus) under slight fluothane anaesthesia. The catheter is attached to the base of the tail with adhesive tape and protected by a glass tube. The test product is administered by force feeding and the rat is then introduced into a crystallizing dish covered with a grid. The free ends of the tube and of the catheter are passed through the grid in order to carry out the dilations.
A distension is carried out 2 h 30 after irritating the rectum. The small balloon is dilated with 1.5 ml of distilled water (intracolic pressure equal to 60 mm Hg on average). Dilation is maintained for 10 minutes, during which the abdominal contractures are counted. The small balloon is then deflated by sucking off the distilled water.
They are expressed by the mean number of contractures observed with respect to five rats for the 10 minutes during which they are subjected to a distension.

[2] = Ulcerative colitis induced by intracolic trinitrobenzenesulphonic acid (TNB): weight, macroscopic and histological analysis of colon; format: in vivo, rat; details: for Mean weight of the animals: in g
Source text: A model for ulcerative colitis induced in the rat by an intracolic instillation of trinitrobenzenesulphonic acid has already been described, for example in Gut (1992), 33, 1498-1503.
The beneficial effect of a treatment on the development of this colitis can be evaluated, on the one hand, by the overall state of health of the animal, represented for example by the change in weight, and, on the other hand, by a histological study of the colon at the end of the experiment.
Male Sprague-Dawley rats (140-150 g), deprived of food since the previous day, are subjected, under general anaesthesia (isoflurane), to irritation of the mucous membrane of the distal colon (7 cm from the anus) with 1 ml of a 50 mg/ml aqueous trinitrobenzenesulphonic acid (TNB) solution. On the following day, the rats are randomized in two equal-sized groups (n=7) which then receive the treatment (placebo or product) by forcefeeding, mornings and evenings. The products are administered at 1 mg/kg p.o. twice daily.
The treatment is administered for the ten days which follow irritation of the colon. The animals are weighed every morning from D5 to D10. The animals are deprived of food on D9 and humanely killed on D10. The colons are removed and macroscopically and then histologically examined.
The macroscopic appearance of the colons was graded as follows:
Sections of the colon are fixed with formaldehyde and enclosed in paraffin blocks. 5 μm sections are prepared, stained with haemalum-eosin and evaluated by optical microscopy according to the following gradings:
The colon was divided into three mucous, submucous and muscular layers and each layer was graded according to the preceding criteria.
The sum of the gradings attributed to each substructure defines, per animal, an index which takes into account both the afflux of the inflammatory cells and the architectural distortion.

5-HT3 receptors [3] = biological target: T1, 5-HT3 receptors (Rattus norvegicus, UniProt P35563); assay: Bezold-Jarisch reflex: inhibition of bradycardia induced by serotonin (5-HT3 antagonist activity in vivo); details: iv; read-out: IC50 for antagonism of serotonin-induced bradycardia
T1 construct: from tissue; host or cells: whole animal (endogenous receptor)
T1 sequence (P35563 24-483): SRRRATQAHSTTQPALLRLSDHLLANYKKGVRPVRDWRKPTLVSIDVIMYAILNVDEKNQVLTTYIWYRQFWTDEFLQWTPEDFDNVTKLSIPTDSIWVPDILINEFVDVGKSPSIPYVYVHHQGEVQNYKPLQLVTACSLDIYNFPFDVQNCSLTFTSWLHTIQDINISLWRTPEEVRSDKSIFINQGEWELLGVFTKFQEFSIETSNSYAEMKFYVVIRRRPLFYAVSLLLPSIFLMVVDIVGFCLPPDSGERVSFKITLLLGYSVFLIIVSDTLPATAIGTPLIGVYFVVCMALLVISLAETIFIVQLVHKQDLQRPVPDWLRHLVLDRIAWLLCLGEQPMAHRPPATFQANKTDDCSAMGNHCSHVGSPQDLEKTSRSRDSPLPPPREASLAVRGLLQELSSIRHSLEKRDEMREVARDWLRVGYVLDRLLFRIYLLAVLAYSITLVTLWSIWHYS
Procedure: The 5-HT3 antagonist activity of products was evaluated in vivo by measuring their property of inhibiting a bradycardia induced by serotonin, according to the method described in J. Pharm. & Exp. Therap. (1989), 248, 197-201.

5-HT3 receptors [4] = biological target: T2, 5-HT3 receptors (Mus musculus, UniProt P23979); assay: Affinity for 5-HT3 receptors, membrane preparations of NG 108-15 cells, tritiated BRL 43694 as ligand; format: binding; details: NG 108-15 cell membranes
T2 sequence (P23979 24-489): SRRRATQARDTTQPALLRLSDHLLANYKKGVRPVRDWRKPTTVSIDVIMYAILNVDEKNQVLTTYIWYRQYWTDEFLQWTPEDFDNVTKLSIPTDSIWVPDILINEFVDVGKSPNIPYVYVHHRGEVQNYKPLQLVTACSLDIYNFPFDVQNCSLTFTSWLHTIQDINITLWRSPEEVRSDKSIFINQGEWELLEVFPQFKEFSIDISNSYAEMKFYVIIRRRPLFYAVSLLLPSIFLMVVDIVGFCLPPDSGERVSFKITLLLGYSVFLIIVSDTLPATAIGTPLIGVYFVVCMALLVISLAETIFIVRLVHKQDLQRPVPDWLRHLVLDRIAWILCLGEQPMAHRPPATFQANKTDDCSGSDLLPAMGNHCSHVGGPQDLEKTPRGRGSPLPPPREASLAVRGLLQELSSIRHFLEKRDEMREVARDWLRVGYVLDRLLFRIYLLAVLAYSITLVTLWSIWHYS
Procedure: The affinity of the compounds for 5-HT3 receptors was measured according to the method described in Bioch. Pharmacol. (1990), 40, (7), 1541-1550, by using membrane preparations of NG 108-15 cells and tritiated BRL 43694 as specific ligand.

In the case of `COc1cc(N)c(Cl)cc1C(=O)N[C@@H]1CCCC[C@@H]1CN1CCC(O)CC1` (relative stereo) [Compound 2], the “No. of contractures ± standard deviation” value ([1]; 0.3 mg/kg p.o.) is reported as 9.2 ± 5.3.
With `COc1cc(N)c(Cl)cc1C(=O)N[C@@H]1CCCC[C@@H]1CN1CCC(CO)CC1` (relative stereo) [Compound 3] the “No. of contractures ± standard deviation” value ([1]; 0.3 mg/kg p.o.) was 13.2 ± 2.4.
With `COc1cc(N)c(Cl)cc1C(=O)N[C@@H]1CCCC[C@@H]1CN1CCC(C)(C)CC1` (relative stereo) [Compound 4] the “No. of contractures ± standard deviation” value ([1]; 0.3 mg/kg p.o.) was 10.6 ± 4.2.
For `COc1cc(N)c(Cl)cc1C(=O)N[C@@H]1CCCC[C@@H]1CN1CCC(C(C)(C)C)CC1` (relative stereo) [Compound 5], the “No. of contractures ± standard deviation” value ([1]; 0.3 mg/kg p.o.) was 10.6 ± 3.8.
With `CC1CCN(C[C@H]2CCCC[C@H]2NC(=O)c2cc(Cl)c(N)cc2OC(C)C)CC1` (relative stereo) [Compound 7] the “No. of contractures ± standard deviation” value ([1]; 0.3 mg/kg p.o.) was 7.6 ± 0.5.
For `COc1cc(N)c(Cl)cc1C(=O)N[C@@H]1CCCC[C@@H]1CN1CCC(C)CC1` [Compound 1], the “No. of contractures ± standard deviation” value ([1]; 0.3 mg/kg p.o.) was 3.4 ± 2.1.
For `CC1CCN(C[C@H]2CCCC[C@H]2NC(=O)c2cc(Cl)c(N)cc2OCC2CC2)CC1` [Compound 6], the “No. of contractures ± standard deviation” value ([1]; 0.1 mg/kg p.o.) was 3.3 ± 1.9, the “No. of contractures ± standard deviation” value ([1]; 0.3 mg/kg p.o.) was 7.3 ± 2.6 and the “No. of contractures ± standard deviation” value ([1]; 1 mg/kg p.o.) was 9.4. For the same molecule, the “change in weight versus placebo” value ([2]; 1 mg/kg p.o. twice daily, TNB colitis) was “significantly improved change in weight”, the “Mean weight of the animals” value ([2]; 5 days after treatment with TNB, 1 mg/kg p.o. twice daily, placebo 130 ± 8) was 153 ± 15 and the “Mean weight of the animals” value ([2]; 6 days after treatment with TNB, 1 mg/kg p.o. twice daily, placebo 139 ± 18, * p < 0.05) was 177 ± 23. The “Mean weight of the animals” value ([2]; 7 days after treatment with TNB, 1 mg/kg p.o. twice daily, placebo 142 ± 20, * p < 0.05) was 186 ± 27, the “Mean weight of the animals” value ([2]; 8 days after treatment with TNB, 1 mg/kg p.o. twice daily, placebo 147 ± 23, * p < 0.05) was 194 ± 34 and the “Mean weight of the animals” value ([2]; 9 days after treatment with TNB, 1 mg/kg p.o. twice daily, placebo 158 ± 30, * p < 0.05) was 206 ± 39. The “Index (histological; sum of gradings of mucous, submucous and muscular layers per animal)” value ([2]; D10, 1 mg/kg p.o. twice daily, each index value shared by the number of animals in the column beside it) was 11 and 3 and 1 and 0, the “Number of animals at macroscopic colon Stage 0” value ([2]; Stage 0: no trace of irritation, D10, 1 mg/kg p.o. twice daily, placebo 0) was 0 and the “Number of animals at macroscopic colon Stage 1” value ([2]; Stage 1: slightly vasodilated mucous membrane, D10, placebo 0) was 1. For the same molecule, the “Number of animals at macroscopic colon Stage 2” value ([2]; Stage 2: vasodilated mucous membrane and adhesions, D10, placebo 0) was 4, the “Number of animals at macroscopic colon Stage 3” value ([2]; Stage 3: haemorrhagic and sclerotic mucous membrane and adhesions, D10, placebo 3) was 2 and the “Number of animals at macroscopic colon Stage 4” value ([2]; Stage 4: ulcerated and haemorrhagic mucous membrane and adhesions, D10, placebo 3) was 0. For the same molecule, the “seriousness of the macroscopic colon lesions versus placebo” value ([2]; chi-squared test, Stages 1 and 2 vs Stages 3 and 4) was “seriousness of the lesions is significantly greater with the placebo than with Compound 6; also recorded: lesional appearance of the colon is less serious”, the “inflammatory state of the colon (histology) versus placebo” value ([2]; chi-squared test, indices 0 to 5 vs 6 to 12) was “inflammatory state is significantly more serious treated with the placebo than treated with Compound 6; also recorded: decrease in the afflux of the inflammatory cells” and the “size of the class combining histological indices 0 to 5” value ([2]; number of animals, placebo 0) was 5. The “size of the class of macroscopic Stages 1 and 2” value ([2]; number of animals, placebo 0) was 5, the “size of the class combining histological indices 6 to 12” value ([2]; number of animals, placebo 6) was 2 and the “size of the class of macroscopic Stages 3 and 4” value ([2]; number of animals, placebo 6) was 2.
For `CC1CCN(C[C@H]2CCCC[C@H]2NC(=O)c2cc(Cl)c(N)cc2OC2CCCC2)CC1` [Compound 8], the “No. of contractures ± standard deviation” value ([1]; 0.3 mg/kg p.o.) was 9.2 ± 1.3.
For `CC1CCN(C[C@H]2CCCC[C@@H]2NC(=O)c2cc(Cl)c(N)cc2OCC2CC2)CC1` [Compound 9], the “No. of contractures ± standard deviation” value ([1]; 0.3 mg/kg p.o.) was 6.3 ± 3.5.
In the case of `Cc1nccn1CC1CCc2c(c3ccccc3n2C)C1=O` (stereo not shown) [ondansetron], the ED50 (5-HT3 receptors [3]) is reported as ~3 µg/kg and the Ki (5-HT3 receptors [4]) is reported as 16 nM.
